Measurements published in US20050256064A1, “9-Desoxoerythromycin compounds as prokinetic agents” (priority 2003, published 2005).
≈ marks a conversion by molar mass, not a printed value. Read-outs that look alike come from different tables or passages of the source.

Tests used:
human motilin receptor [1] = molecular target: T1, human motilin receptor (Homo sapiens, UniProt O43193); settings: HEK293 cells expressing human motilin receptor; as reported in Anal. Biochemistry; read-out: Motilin Agonist EC50; cited from earlier work
T1 construct: expressed in transfected cells; host or cells: HEK293

cytochrome P450 3A4 = cytochrome P450 3A4 (Homo sapiens, UniProt P08684); test: Cytochrome P450 inhibition; format: in vitro ADME
Experimental: The inhibitory effect of compound I-b on cytochrome P450 3A4, the most abundant of the cytrochrome P450 enzymes responsible for the metabolism of many drugs, was determined, using a method based on Stresser et al., Drug Metabolism Disposition, 30 (7), 845-52. A strong inhibitory effect is undesirable, as indicative of a high probability of interference with other drugs.

S. pneumoniae = test: Antibacterial activity, MIC by serial dilutions on 96-well microtiter plates; format: cell-based; settings: for MIC: Streptococcus pneumoniae
human motilin receptor [2] = molecular target: T1, human motilin receptor; test: Motilin agonist potency (cell based assay); settings: HEK293 cells expressing human motilin receptor
Experimental: The motilin agonist potency of compound I-b was evaluated in a cell based assay, according to the procedure disclosed in Carreras et al., Anal. Biochemistry, 300, 146-151 (2002), the disclosure of which is incorporated herein by reference. Briefly, in this method HEK293 cells are transformed with a synthetic gene for the human motilin receptor. Expression of the synthetic gene produces the human motilin receptor; then the activation of the receptor by the binding of a test compound thereto is measured.

hERG potassium channel = hERG potassium channel (Homo sapiens, UniProt Q12809); test: in vitro; settings: human
From the text: (§1) Stanat et al., Mol. Cellular Biochem., 254, 1-7 (2003), “Characterization of the Inhibitory Effects of Erythromycin and Clarithromycin on the HERG Potassium Channel”.

rabbit duodenum strips = test: Chronic dosing tachyphylaxis model; settings: for % of the initial contraction after the fourth dose: dosed at EC90 at 0, 30, 60 and 90 min, response at 0 min set as 100%
Experimental: Rabbit duodenum strips were qualified as described above and dosed with test compound at its EC90 concentration. The contraction was recorded. When peak contractile force was reached, carbachol (1 μM) was added, and any further contraction was recorded. The resulting contraction is expressed as a fraction of the 1 μM carbachol contraction. The test compound and carbachol were washed away by changing the bath solution twice. The procedure was repeated at 30, 60, and 90 min following the initial dosing.

rabbit duodenum tissue = test: Motilin agonist potency (tissue based assay), rabbit duodenum contractility; settings: Oryctolagus cuniculus, rabbit duodenum contraction
Experimental: The motilin agonist potency of compound I-b also was evaluated using a tissue based assay, using rabbit duodenum tissue-based contractility assay, generally following the procedure of Depoortere et al., J. Gastrointestinal Motility, 1, 150-159 (1989), the disclosure of which is incorporated herein by reference. Briefly, this method measures the ability of a compound to induce contractions in rabbit duodenal tissue, a tissue that responds to motilin.
Strips of rabbit duodenum were tested and qualified for use in the assay by as follows. Segments of rabbit duodenum, 20-30 cm distal to the pylorus were split longitudinally. The mucosa was removed and 2×2×15 mm strips of longitudinal smooth muscle were sliced from the segments. The strips were bathed in oxygenated Krebs solution at 37° C., with 1.5 g of tension, and contractions measured auxotonically. […] Qualified strips were mounted on the test apparatus.
Compound I-b was dissolved in dimethylsulfoxide (DMSO) to a final concentration of 10 mM. […]
The EC50 (concentration producing a half-maximal effect) was calculated as follows. The basal tension was subtracted from the compound-induced tension for each reading. […] Both R and Rmax are expressed as a fraction of the 1 μM carbachol contraction and range from 0 to 1. […]

[3] = molecular target: hERG (human ether-a-go-go related gene) potassium channel (Homo sapiens, UniProt Q12809); test: in vitro
From the text: as §1

Sequence of hERG potassium channel (Q12809 whole entry): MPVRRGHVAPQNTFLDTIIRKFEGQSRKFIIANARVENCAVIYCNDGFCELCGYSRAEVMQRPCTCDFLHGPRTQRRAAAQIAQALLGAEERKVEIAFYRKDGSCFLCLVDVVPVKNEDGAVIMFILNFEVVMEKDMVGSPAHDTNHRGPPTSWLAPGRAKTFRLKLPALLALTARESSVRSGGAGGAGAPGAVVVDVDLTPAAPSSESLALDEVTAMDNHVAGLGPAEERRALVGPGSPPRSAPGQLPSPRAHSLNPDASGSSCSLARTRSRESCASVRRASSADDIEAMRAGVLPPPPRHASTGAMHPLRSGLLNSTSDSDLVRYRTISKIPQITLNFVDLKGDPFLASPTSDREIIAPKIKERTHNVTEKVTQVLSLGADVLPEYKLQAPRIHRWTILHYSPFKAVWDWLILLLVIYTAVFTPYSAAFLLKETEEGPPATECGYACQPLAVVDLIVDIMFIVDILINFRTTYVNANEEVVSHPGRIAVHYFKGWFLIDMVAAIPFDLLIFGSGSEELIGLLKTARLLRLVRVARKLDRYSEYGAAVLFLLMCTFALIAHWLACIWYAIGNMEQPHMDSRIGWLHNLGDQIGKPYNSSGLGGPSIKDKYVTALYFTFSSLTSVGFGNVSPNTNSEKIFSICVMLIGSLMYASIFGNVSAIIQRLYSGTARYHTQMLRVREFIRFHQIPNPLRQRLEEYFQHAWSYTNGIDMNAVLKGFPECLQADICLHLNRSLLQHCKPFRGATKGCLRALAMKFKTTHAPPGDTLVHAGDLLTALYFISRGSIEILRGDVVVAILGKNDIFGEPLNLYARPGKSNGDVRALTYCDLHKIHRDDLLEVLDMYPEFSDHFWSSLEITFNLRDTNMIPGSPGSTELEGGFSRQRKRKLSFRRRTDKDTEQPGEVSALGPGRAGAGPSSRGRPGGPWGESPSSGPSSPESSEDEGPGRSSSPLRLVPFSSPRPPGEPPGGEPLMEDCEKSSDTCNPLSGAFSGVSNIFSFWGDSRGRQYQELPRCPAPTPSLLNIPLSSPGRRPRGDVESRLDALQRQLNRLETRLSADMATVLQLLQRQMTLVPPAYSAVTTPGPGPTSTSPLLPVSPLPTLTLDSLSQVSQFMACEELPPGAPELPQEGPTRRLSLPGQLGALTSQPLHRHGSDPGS
T1 sequence (O43193 whole entry): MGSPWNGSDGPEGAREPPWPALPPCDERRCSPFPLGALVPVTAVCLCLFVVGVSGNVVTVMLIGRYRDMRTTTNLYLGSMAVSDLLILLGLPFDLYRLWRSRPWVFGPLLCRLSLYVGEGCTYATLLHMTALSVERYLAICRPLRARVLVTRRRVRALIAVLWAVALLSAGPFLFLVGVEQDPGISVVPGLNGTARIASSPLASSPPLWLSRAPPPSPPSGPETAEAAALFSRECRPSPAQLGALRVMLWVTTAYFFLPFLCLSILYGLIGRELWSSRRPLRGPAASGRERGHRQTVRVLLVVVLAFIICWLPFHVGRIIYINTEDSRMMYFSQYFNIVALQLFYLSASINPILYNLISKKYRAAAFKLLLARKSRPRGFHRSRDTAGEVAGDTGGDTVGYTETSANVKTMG
Sequence of hERG (human ether-a-go-go related gene) potassium channel (Q12809 whole entry): as the sequence (Q12809 whole entry) above
Sequence of cytochrome P450 3A4 (P08684 whole entry): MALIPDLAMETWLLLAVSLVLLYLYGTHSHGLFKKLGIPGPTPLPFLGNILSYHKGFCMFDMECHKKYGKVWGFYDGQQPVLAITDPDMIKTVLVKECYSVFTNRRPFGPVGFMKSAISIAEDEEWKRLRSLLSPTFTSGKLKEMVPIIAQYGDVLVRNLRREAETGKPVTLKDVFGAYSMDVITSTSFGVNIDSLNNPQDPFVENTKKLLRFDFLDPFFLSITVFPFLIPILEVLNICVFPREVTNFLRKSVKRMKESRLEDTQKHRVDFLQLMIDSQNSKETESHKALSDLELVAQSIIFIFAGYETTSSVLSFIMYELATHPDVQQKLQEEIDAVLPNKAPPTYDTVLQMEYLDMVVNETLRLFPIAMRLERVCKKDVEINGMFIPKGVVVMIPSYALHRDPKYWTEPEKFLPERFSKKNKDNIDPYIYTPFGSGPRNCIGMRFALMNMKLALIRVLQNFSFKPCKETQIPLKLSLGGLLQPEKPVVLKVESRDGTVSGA

## CC[C@H]1OC(=O)[C@H](C)[C@@H](OC2C[C@@](C)(OC)C[C@H](C)O2)[C@H](C)[C@@H](OC2O[C@H](C)C[C@H](N(C)CC)[C@H]2O)[C@@]2(C)CC(C)=C(O2)[C@H](C)[C@@H](O)[C@H]1C (some centres unmarked) [ABT 229]
Human motilin receptor [1]
  EC50: 40 nM

## CC[C@H]1OC(=O)[C@H](C)[C@@H](O[C@H]2C[C@@](C)(OC)[C@@H](O)[C@H](C)O2)[C@H](C)[C@@H](O[C@@H]2O[C@H](C)C[C@H](N(C)C(C)C)[C@H]2O)C(C)(O)C[C@@H](C)C[C@H](C)[C@@H](O)[C@]1(C)O (some centres unmarked) [Compound I-b, N-Desmethyl-N-isopropyl-9-desoxoerythromycin A]
Cytochrome P450 3A4
  Ki: 9900 nM
S. pneumoniae; ATCC6301, S. pneumoniae strain ATCC 6301, read-out: Minimum Inhibitory Concentration (MIC)
  MIC: 50 µg/mL (≈ 66.8 µM)
S. pneumoniae; ATCC49619, S. pneumoniae strain ATCC 49619, read-out: Minimum Inhibitory Concentration (MIC)
  MIC: 50 µg/mL (≈ 66.8 µM)
S. pneumoniae; ATCC700671, S. pneumoniae strain ATCC 700671, read-out: Minimum Inhibitory Concentration (MIC)
  MIC: > 200 µg/mL
S. pneumoniae; erythromycin A sensitive strains of S. pneumoniae, in words
  antibacterial activity: low antibacterial activity
Human motilin receptor [2]
  EC50: 1200 nM
hERG potassium channel
  inhibition at 10 µM: 74%
  inhibition at 30 µM: 95%
Rabbit duodenum strips; contractile responses at 0, 30, 60, 90 min, in words
  tachyphylaxis effect (FIG. 1): distinctly less pronounced than that of ABT 229
Rabbit duodenum strips
  % of the initial contraction after the fourth dose: 39±13%
Rabbit duodenum tissue; normalized to 1 μM carbachol, read-out: EC50 (concentration producing a half-maximal effect)
  EC50: 180 nM
Rabbit duodenum tissue; approximated as ten times EC50 and verified, read-out: EC90 (concentration producing 90% of the maximal effect)
  EC90: 1800 nM

## CCC(C)N(C)[C@H]1C[C@@H](C)O[C@@H](O[C@@H]2[C@@H](C)[C@H](O[C@H]3C[C@@](C)(OC)[C@@H](O)[C@H](C)O3)[C@@H](C)C(=O)O[C@H](CC)[C@@](C)(O)[C@H](O)[C@@H](C)C[C@H](C)CC2(C)O)[C@@H]1O (some centres unmarked) [Compound I-c, N-Desmethyl-N-sec-butyl-9-desoxoerythromycin A]
hERG potassium channel
  inhibition at 10 µM: 26.5%
  inhibition at 30 µM: 70.3%

## CC[C@H]1OC(=O)[C@H](C)[C@@H](O[C@H]2C[C@@](C)(OC)[C@@H](O)[C@H](C)O2)[C@H](C)[C@@H](O[C@@H]2O[C@H](C)C[C@H](N(C)CC(C)C)[C@H]2O)C(C)(O)C[C@@H](C)C[C@H](C)[C@@H](O)[C@]1(C)O (some centres unmarked) [Compound I-d, N-Desmethyl-N-isobutyl-9-desoxoerythromycin A]
hERG potassium channel
  inhibition at 10 µM: 33.1%
  inhibition at 30 µM: 71.4%

## CCC1OC(=O)C(C)C(OC2CC(C)(OC)C(O)C(C)O2)C(C)C(OC2OC(C)CC(N(C)CCO)C2O)C(C)(O)CC(C)CC(C)C(O)C1(C)O (centres unmarked) [Compound I-e, N-Desmethyl-N-(2-hydroxyethyl)-9-desoxoerythromycin A]
[3]; 10 µM
  Inhibition (%) at Specified Compound Concentration: 57.1%
[3]; 30 µM
  Inhibition (%) at Specified Compound Concentration: 84.3%
Rabbit duodenum strips
  % of the initial contraction after the fourth dose: 85±11%

## CC[C@H]1OC(=O)[C@H](C)[C@@H](O[C@H]2C[C@@](C)(OC)[C@@H](O)[C@H](C)O2)[C@H](C)[C@@H](O[C@@H]2O[C@H](C)C[C@H](N(C)C)[C@H]2O)[C@](C)(O)C[C@@H](C)C(=O)[C@H](C)[C@@H](O)[C@]1(C)O [Erythromycin A, reference compound]
S. pneumoniae; ATCC6301, read-out: Minimum Inhibitory Concentration (MIC)
  MIC: 0.025 µg/mL (≈ 0.0341 µM)
S. pneumoniae; ATCC49619, read-out: Minimum Inhibitory Concentration (MIC)
  MIC: 0.049 µg/mL (≈ 0.0668 µM)
S. pneumoniae; ATCC700671, read-out: Minimum Inhibitory Concentration (MIC)
  MIC: 0.049 µg/mL (≈ 0.0668 µM)
